The test system of one assay is A549. Briefly: Cytotoxicity against human A549 cells assessed as cell growth inhibition measured after 24 hrs by MTT assay. The assay is classed as functional, cell-based. The settings on record: A549, 24 h. (In general: Tetrazolium assays rely on reduction of a dye to a coloured formazan, in cell work by metabolically active cells.)
In assay [1] the test system is DU-145. Kind of assay: Cytotoxicity against human DU145 cells assessed as cell growth inhibition measured after 24 hrs by MTT assay. Type of assay: functional, cell-based. The settings on record: DU-145, 24 h.
Another assay has as its system SK-OV-3. Briefly: Cytotoxicity against human SKOV3 cells assessed as cell growth inhibition measured after 24 hrs by MTT assay. The settings on record: SK-OV-3, 24 h. The assay is classed as functional, cell-based.
The subject of a further assay is COLO 205. Briefly: Cytotoxicity against human COLO205 cells assessed as cell growth inhibition measured after 24 hrs by MTT assay. The assay is classed as functional, cell-based. The settings on record: COLO 205, 24 h.
A further assay has as its system HeLa. Kind of assay: Cytotoxicity against human HeLa cells assessed as cell growth inhibition measured after 24 hrs by MTT assay. The assay is classed as functional, cell-based.
Assay [2] has as its system DU-145. Briefly: Cell cycle arrest in human DU145 cells assessed as accumulation at G0/G1 phase at 3.6 uM measured after 24 hrs by RNase A/propidium iodide staining based flow cytometry analysis (reference value: 51.75 %). The assay is classed as functional.
In assay [3] the test system is DU-145. Briefly: Induction of apoptosis in human DU145 cells assessed as early apoptotic cells at 6 uM measured after 24 hrs by Annexin-V/FITC and propidium iodide staining based flow cytometry (reference value: 0.25 %). The assay is classed as functional.
In assay [4] the test system is DU-145. Kind of assay: Induction of apoptosis in human DU145 cells assessed as late apoptotic cells at 3.6 uM measured after 24 hrs by Annexin-V/FITC and propidium iodide staining based flow cytometry (reference value: 1.49 %). Type of assay: functional.
Assay [5] concerns DU-145. Kind of assay: Induction of apoptosis in human DU145 cells assessed as early apoptotic cells at 3.6 uM measured after 24 hrs by Annexin-V/FITC and propidium iodide staining based flow cytometry (reference value: 0.25 %). The assay is classed as functional.
For assay [6], the system named is DU-145. Kind of assay: Induction of apoptosis in human DU145 cells assessed as live cells at 3.6 uM measured after 24 hrs by Annexin-V/FITC and propidium iodide staining based flow cytometry (reference value: 95.62 %). Type of assay: functional. On the technique in general: In flow cytometry, cells or beads pass a laser one at a time.
Assay [7] relates to DU-145. Kind of assay: Induction of apoptosis in human DU145 cells assessed as live cells at 6 uM measured after 24 hrs by Annexin-V/FITC and propidium iodide staining based flow cytometry (reference value: 95.62 %). The assay is classed as functional.
Assay [8] concerns DU-145. Briefly: Induction of apoptosis in human DU145 cells assessed as necrotic cells at 6 uM measured after 24 hrs by Annexin-V/FITC and propidium iodide staining based flow cytometry (reference value: 2.64 %). The assay is classed as functional.
For assay [9], the system named is DU-145. Briefly: Induction of apoptosis in human DU145 cells assessed as increase in total apoptotic cells measured after 24 hrs by Annexin-V/FITC and propidium iodide staining based flow cytometry. Type of assay: functional, cell-based.
Assay [10] concerns DU-145. Briefly: Induction of apoptosis in human DU145 cells assessed as necrotic cells at 3.6 uM measured after 24 hrs by Annexin-V/FITC and propidium iodide staining based flow cytometry (reference value: 2.64 %). Type of assay: functional.
Assay [11] deals with DU-145. Briefly: Induction of apoptosis in human DU145 cells assessed as late apoptotic cells at 6 uM measured after 24 hrs by Annexin-V/FITC and propidium iodide staining based flow cytometry (reference value: 1.49 %). The assay is classed as functional.
In assay [12] the test system is DU-145. Briefly: Induction of apoptosis in human DU145 cells assessed as early apoptotic cells at 4.8 uM measured after 24 hrs by Annexin-V/FITC and propidium iodide staining based flow cytometry (reference value: 0.25 %). Type of assay: functional.
The subject of assay [13] is DU-145. Briefly: Cell cycle arrest in human DU145 cells assessed as accumulation at G2/M phase at 4.8 uM measured after 24 hrs by RNase A/propidium iodide staining based flow cytometry analysis. Type of assay: functional.
Assay [14] relates to DU-145. Kind of assay: Induction of apoptosis in human DU145 cells assessed as late apoptotic cells at 4.8 uM measured after 24 hrs by Annexin-V/FITC and propidium iodide staining based flow cytometry (reference value: 1.49 %). The assay is classed as functional.
Assay [15] has as its system DU-145. Briefly: Induction of apoptosis in human DU145 cells assessed as live cells at 4.8 uM measured after 24 hrs by Annexin-V/FITC and propidium iodide staining based flow cytometry (reference value: 95.62 %). The assay is classed as functional.
The test system of assay [16] is DU-145. Kind of assay: Induction of apoptosis in human DU145 cells assessed as necrotic cells at 4.8 uM measured after 24 hrs by Annexin-V/FITC and propidium iodide staining based flow cytometry (reference value: 2.64 %). The assay is classed as functional.

Structures are written as SMILES. Active and inactive are the calls of the source. The calls are words filed in the database; no cut-off is given here.

On to `C/C=C(\C)C(=O)O[C@H]1[C@]2(C)C[C@@H]3O[C@@]1(O)C=C1C4=CC(=O)O[C@@H](c5ccoc5)[C@]4(C)CC[C@@H]1[C@]3(C)[C@@H]2[C@@H](O)C(=O)OC`, for which the half-maximal inhibitory concentration (IC50) (in general, the concentration that gives 50% inhibition) with A549 was 8.1 µM; with DU-145 [1], 7.7 µM; in the assay on SK-OV-3, above 100 µM; in the assay with COLO 205, above 100 µM; in the assay on HeLa, above 100 µM.
As for `COC(=O)[C@H](O)[C@@H]1[C@@]2(C)C[C@@H]3O[C@@](O)(C=C4C5=CC(=O)O[C@@H](c6ccoc6)[C@]5(C)CC[C@@H]4[C@@]31C)[C@H]2O`, the IC50 in the assay with A549 is 9.6 µM; with DU-145 [1], above 100 µM; with SK-OV-3, above 100 µM; with COLO 205, above 100 µM; in the assay on HeLa it was above 100 µM.
In the case of `C/C=C(\C)C(=O)O[C@H]1[C@]2(C)C[C@@H]3O[C@@]1(O)C=C1C4=CC(=O)O[C@@H](c5ccoc5)[C@]4(C)CC[C@@H]1[C@]3(C)[C@@H]2[C@@H](OC(C)=O)C(=O)OC`, the half-maximal inhibitory concentration (IC50) in the assay on A549, with DU-145 [1], in the assay on SK-OV-3, with COLO 205 and in the assay on HeLa was above 100 µM each time.
As for `CCOC(=O)[C@H](O)[C@@H]1[C@@]2(C)C[C@@H]3O[C@@](O)(C=C4C5=CC(=O)O[C@@H](c6ccoc6)[C@]5(C)CC[C@@H]4[C@@]31C)[C@H]2O`, the IC50 was 16.3 µM with A549; 3.6 µM in the assay with DU-145 [1]; above 100 µM in the assay with SK-OV-3; above 100 µM in the assay with COLO 205; above 100 µM in the assay with HeLa. Also, the Activity with DU-145 [2] was 47.2%; with DU-145 [3] it was 0.86%; in the assay on DU-145 [4] it was 5.39%; in the assay with DU-145 [5] it was 0.84%; in the assay on DU-145 [6], 90.97%; in the assay with DU-145 [7], 89.27%. The Activity with DU-145 [8] was 3.42%; in the assay with DU-145 [9], “Dose-dependent effect”; in the assay on DU-145 [10], 2.8%; in the assay with DU-145 [11], 6.45%.
As to `C/C=C(\C)C(=O)O[C@@H]1[C@]2(OC(=O)c3ccco3)C=C3C4=CC(=O)O[C@@H](c5ccoc5)[C@]4(C)CC[C@@H]3[C@@]3(C)[C@H](C[C@]1(C)[C@H]3[C@@H](OC(=O)c1ccco1)C(=O)OC)O2`, the IC50 in the assay with A549 was 7.6 µM; in the assay on DU-145 [1] it was 17.8 µM; in the assay with SK-OV-3, above 100 µM; in the assay with COLO 205, above 100 µM; in the assay with HeLa it was above 100 µM.
`C/C=C(\C)C(=O)O[C@H]1[C@]2(C)C[C@@H]3O[C@@]1(O)C=C1C4=CC(=O)O[C@@H](c5ccoc5)[C@]4(C)CC[C@@H]1[C@]3(C)[C@@H]2C(=O)C(=O)OC`: the concentration for half-maximal inhibition (IC50) with A549 was 44.4 µM; with DU-145 [1], above 100 µM; with SK-OV-3 it was above 100 µM; in the assay with COLO 205 it was above 100 µM; in the assay with HeLa it was above 100 µM.
For the compound `C/C=C(\C)C(=O)O[C@@H]1[C@]2(OC(=O)C3CC3)C=C3C4=CC(=O)O[C@@H](c5ccoc5)[C@]4(C)CC[C@@H]3[C@@]3(C)[C@H](C[C@]1(C)[C@H]3[C@@H](OC(=O)C1CC1)C(=O)OC)O2`, the IC50 with A549, in the assay with DU-145 [1], in the assay on SK-OV-3, in the assay on COLO 205 and in the assay with HeLa was above 100 µM each time.
For the compound `C/C=C(\C)C(=O)O[C@@H]1C(=O)/C=C2/C3=CC(=O)O[C@@H](c4ccoc4)[C@]3(C)CC[C@@H]2[C@@]2(C)C(=O)C[C@]1(C)[C@@H]2[C@@H](O)C(=O)OC`, the IC50 in the assay on A549 is above 100 µM; with DU-145 [1], 10.5 µM; in the assay on SK-OV-3 it was above 100 µM; in the assay with COLO 205 it was above 100 µM; with HeLa it was above 100 µM.
In the case of `C/C=C(\C)C(=O)O[C@@H]1[C@]2(OC(=O)CC)C=C3C4=CC(=O)O[C@@H](c5ccoc5)[C@]4(C)CC[C@@H]3[C@@]3(C)[C@H](C[C@]1(C)[C@H]3[C@@H](O)C(=O)OC)O2`, the IC50 is above 100 µM in the assay on A549; 6.7 µM with DU-145 [1]; above 100 µM with SK-OV-3; above 100 µM in the assay on COLO 205; above 100 µM in the assay with HeLa.
For `C/C=C(\C)C(=O)O[C@@H]1[C@]2(OC(=O)CC)C=C3C4=CC(=O)O[C@@H](c5ccoc5)[C@]4(C)CC[C@@H]3[C@@]3(C)[C@H](C[C@]1(C)[C@H]3[C@@H](OC(=O)CC)C(=O)OC)O2`, the IC50 with A549, in the assay on DU-145 [1], with SK-OV-3, in the assay with COLO 205 and in the assay on HeLa was above 100 µM throughout.
Take `C/C=C(\C)C(=O)O[C@@H]1[C@]2(OC(=O)C(C)C)C=C3C4=CC(=O)O[C@@H](c5ccoc5)[C@]4(C)CC[C@@H]3[C@@]3(C)[C@H](C[C@]1(C)[C@H]3[C@@H](OC(=O)C(C)C)C(=O)OC)O2`: the concentration for half-maximal inhibition (IC50) in the assay with A549, in the assay on DU-145 [1], with SK-OV-3, in the assay on COLO 205 and in the assay with HeLa was above 100 µM throughout.
Consider `COc1cccc2c1C(=O)c1c(O)c3c(c(O)c1C2=O)C[C@@](O)(C(=O)CO)C[C@@H]3O[C@H]1C[C@H](N)[C@H](O)[C@H](C)O1` [DOXORUBICIN], for which the Activity was found to be 2.41% with DU-145 [12], 10.77% in the assay with DU-145 [14], 84.42% in the assay with DU-145 [15] and 2.4% with DU-145 [16]. Further, the IC50 in the assay with A549 was found to be 5.3 µM; in the assay with DU-145 [1] it was 4.8 µM; in the assay with SK-OV-3, 3 µM; in the assay on COLO 205, 3.8 µM; in the assay on HeLa, 7.9 µM. In the assay on DU-145 [13], the result was Active.
Consider `C/C=C(\C)C(=O)O[C@@H]1[C@]2(OC(=O)C3CC3)C=C3C4=CC(=O)O[C@@H](c5ccoc5)[C@]4(C)CC[C@@H]3[C@@]3(C)[C@H](C[C@]1(C)[C@H]3[C@@H](O)C(=O)OC)O2`, for which the IC50 in the assay on A549 was 11.8 µM; with DU-145 [1], above 100 µM; in the assay with SK-OV-3 it was above 100 µM; in the assay with COLO 205, above 100 µM; in the assay on HeLa it was above 100 µM.

Source of the values: ChEMBL document CHEMBL4414608, “Secophragmalin-Type Limonoids from Trichilia connaroides: Isolation, Semisynthesis, and Their Cytotoxic Activities” (J Nat Prod, 2019).
